Measurements: publication PMC9923736, “Optimized Ebselen-Based Inhibitors of Bacterial Ureases with Nontypical Mode of Action” (Journal of Medicinal Chemistry, 2023)

Key:
[1] = molecular target: Sporosarcina pasteurii urease (Sporosarcina pasteurii, UniProt P41020); experiment: Inhibition of purified S. pasteurii urease (Ki; phenol-hypochlorite/Berthelot ammonia assay); type: biochemical; settings: for mechanism of inhibition: S. pasteurii urease, Lineweaver-Burk plots / reaction progress curves
Sequence of Sporosarcina pasteurii urease (P41020 whole entry, looked up): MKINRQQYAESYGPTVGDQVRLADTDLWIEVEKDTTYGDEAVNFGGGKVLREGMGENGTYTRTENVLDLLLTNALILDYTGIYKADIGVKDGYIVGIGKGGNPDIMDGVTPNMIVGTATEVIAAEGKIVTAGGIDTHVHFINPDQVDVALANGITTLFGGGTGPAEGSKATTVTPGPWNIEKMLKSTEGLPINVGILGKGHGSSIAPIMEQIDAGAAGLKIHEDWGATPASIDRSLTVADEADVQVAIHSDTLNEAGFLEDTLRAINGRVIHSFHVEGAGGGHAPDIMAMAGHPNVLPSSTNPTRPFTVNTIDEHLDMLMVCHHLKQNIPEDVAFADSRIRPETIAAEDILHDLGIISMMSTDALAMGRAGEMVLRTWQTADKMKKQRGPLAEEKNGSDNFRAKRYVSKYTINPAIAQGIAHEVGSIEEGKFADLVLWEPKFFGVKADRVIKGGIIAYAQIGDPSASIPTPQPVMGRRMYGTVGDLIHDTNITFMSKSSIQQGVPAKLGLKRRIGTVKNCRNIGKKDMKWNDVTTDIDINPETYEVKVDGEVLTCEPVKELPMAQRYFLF
Experimental: The values of kinetic parameters ( and KM
vmax) of the purified enzyme were determined by fitting the initial reaction velocities measured in a range of urea concentrations to the Michaelis-Menten equation by nonlinear regression. The values […]
Enzymatic reactions were carried out in 3 mM phosphate buffer pH 7.5 at 37 °C. The kinetic parameters of urease in the noninhibited reaction ( and ) were obtained by measuring the Kmvmax […]
activity was defined as the amount of enzyme required to produce 1 µM ammonia per min under […]
S2.1. Inhibition studies.
S. pasteuriipM urease in assay mixtures (200 μL total volume) containing increasing concentrations […]
The values were calculated using the appropriate equations in Ki the GraphPad Prism 5 software. The inhibition mechanism was determined using Lineweaver-Burk plots after testing at least five inhibitor concentrations in the range depending on their inhibitory strength (exemplified in Figure S26).
S2.2. Inhibition studies. […]
and 52), ammonia concentration versus time, for urea hydrolysis catalyzed by S. pasteurii urease in the absence and presence of inhibitors were performed in standard assay mixtures at a single urea concentration (final concentration 25 mM) and at different inhibitor concentrations according to their inhibitory strength. Enzymatic hydrolysis of urea was initiated by adding […] of urease solution […]
min in samples taken from reaction mixtures at set time intervals. The reaction mixtures were stirred throughout the measurement period. The nonlinear reaction progress curves with time-dependent inhibitors of urease (for the nonincubated reaction and under conditions: [I]0 ≫ [E] 0) were described using the integrated equation: , (where is the concentration [P]=vt+(v+v)(1―e―kappt)1P […]
of the reaction product formed at time t, which is the reaction time, and are the reaction initial vivs and steady-state rates, respectively, and is the apparent first-order rate constant for the kapp interconversion between and ). […] The vivs […]
equilibrium dissociation constants of the initial and the final enzyme conformation complex EI EI ∗ […]
is the Michaelis-Menten constant, maximum rate of enzyme in a noninhibited reaction, vmax S and I are substrate and inhibitor concentration). The mechanism of inhibitor binding was determined using steady-state kinetic measurements (Figures S27 and S28). […]
pM) was pre-incubated with increasing inhibitor concentrations in separate aliquots of reaction buffer prior to the initiation of the reaction by urea incorporation at a concentration ranging from 1 to 60 mM. The incubation time was different for the assayed inhibitors, depending on when equilibrium was achieved between enzyme , inhibitor and enzyme-inhibitor complexes ( and : (E)(I)EI EI ∗ E + I ↔EI ↔ EI ∗ ) . The values were calculated using the appropriate equations implemented in Ki the GraphPad Prism 5 software. The inhibitors were dissolved in water or DMF (the solvent was […]
Urease activity was determined using the […]
run in triplicate for the compounds analyzed.

[2] = tested on: urease in living cells of P. mirabilis PCM 543; experiment: Inhibition of ureolysis in whole P. mirabilis cells in artificial urine model; settings: Proteus mirabilis, read-out: IC90 (urine model)
[3] = tested on: urease in living cells of P. mirabilis PCM 543; experiment: Inhibition of ureolysis in whole P. mirabilis cells in PBS buffer (nongrowth conditions); settings: Proteus mirabilis, read-out: IC50 (PBS buffer)
histone deacetylases = molecular target: histone deacetylases; set-up: method as in PMID 22047054; settings: cited from earlier work
[4] = molecular target: methionine aminopeptidase 2; settings: cited from earlier work
glutamate dehydrogenase = settings: cited from earlier work
antigen 85 complex = antigen 85 complex of Mycobacterium tuberculosis; cited from earlier work
[5] = molecular target: bacterial thioredoxin reductase, Bacillus anthracis; settings: cited from earlier work

Row | SMILES | Ki [1] [nM] | IC90 [2] [nM] | IC50 [3] [nM] | also measured
1 | COc1ccc(-n2[se]c3ccccc3c2=O)cc1 [compound 41, 2-(4-Methoxyphenyl)-1,2-benzisoselenazol-3(2H)-one] | 44 ± 4.2 | 180 ± 10 | 15.9 ± 1.1 | –
2 | COc1ccc(-n2[se]c3ccccc3c2=O)c(C)c1 [compound 43, 2-(4-Methoxy-2-methylphenyl)-1,2-benzisoselenazol-3(2H)-one] | 7.3 ± 0.56 | 148 ± 10 | 25.1 ± 2 | mechanism of inhibition [1]: Slow binding inhibition
3 | COc1ccc(Cl)cc1-n1[se]c2ccccc2c1=O [compound 53, 2-(5-Chloro-2-methoxyphenyl)-1,2-benzisoselenazol-3(2H)-one] | 1.63 ± 0.12 | 82.2 ± 11.3 | 21.9 ± 1.7 | –
4 | O=c1c2ccccc2[se]n1-c1ccccc1Cl [compound 32, 2-(2-Chlorophenyl)-1,2-benzisoselenazol-3(2H)-one] | 13.7 ± 0.96 | 87.7 ± 8.3 | 13.6 ± 1.5 | –
5 | Cc1cc(-n2[se]c3ccccc3c2=O)ccc1Cl [compound 54, 2-(4-Chloro-3-methylphenyl)-1,2-benzisoselenazol-3(2H)-one] | 2.45 ± 0.16 | 124 ± 14 | 23.8 ± 2 | –
6 | O=c1c2ccccc2[se]n1-c1ccc(F)cc1 [compound 39, 2-(4-Fluorophenyl)-1,2-benzisoselenazol-3(2H)-one] | 24.1 ± 2.6 | 145 ± 17 | 12.1 ± 1.4 | –
7 | Cc1ccc(-n2[se]c3ccccc3c2=O)cc1 [compound 38, 2-(4-Methylphenyl)-1,2-benzisoselenazol-3(2H)-one] | 4.04 ± 0.32 | – | – | –
8 | CCCCOc1ccc(-n2[se]c3ccccc3c2=O)cc1 [compound 42, 2-(4-n-Butoxyphenyl)-1,2-benzisoselenazol-3(2H)-one] | 1.78 ± 0.18 | 224 ± 15 | 32.2 ± 3.8 | mechanism of inhibition [1]: Slow binding inhibition
9 | Cc1ccc(-n2[se]c3ccccc3c2=O)c(Cl)c1 [compound 46, 2-(2-Chloro-4-methylphenyl)-1,2-benzisoselenazol-3(2H)-one] | 3.26 ± 0.23 | 176 ± 12 | 20 ± 1.7 | –
10 | O=c1c2ccccc2[se]n1-c1cccc(F)c1 [compound 36, 2-(3-Fluorophenyl)-1,2-benzisoselenazol-3(2H)-one] | 1.89 ± 0.16 | 223 ± 17 | 8.86 ± 0.81 | –
11 | O=c1c2ccccc2[se]n1-c1ccccc1O [compound 34, 2-(2-Hydroxyphenyl)-1,2-benzisoselenazol-3(2H)-one] | 1.42 ± 0.14 | 148 ± 6 | 16.8 ± 1.4 | –
12 | O=c1c2ccccc2[se]n1-c1ccc(F)cc1Cl [compound 47, 2-(2-Chloro-4-fluorophenyl)-1,2-benzisoselenazol-3(2H)-one] | 0.0058 ± 0.0004 | 126 ± 8 | 22.7 ± 2.5 | –
13 | COc1cccc(-n2[se]c3ccccc3c2=O)c1 [compound 37, 2-(3-Methoxyphenyl)-1,2-benzisoselenazol-3(2H)-one] | 1.07 ± 0.08 | 53.8 ± 3.7 | 11.5 ± 1.3 | mechanism of inhibition [1]: Slow binding inhibition
14 | O=c1c2ccccc2[se]n1-c1cc(Cl)ccc1F [compound 49, 2-(5-Chloro-2-fluorophenyl)-1,2-benzisoselenazol-3(2H)-one] | 0.0135 ± 0.0014 | 151 ± 20 | 11.8 ± 1 | –
15 | Cc1ccccc1-n1[se]c2ccccc2c1=O [compound 30, 2-(2-Methylphenyl)-1,2-benzisoselenazol-3(2H)-one] | 3.56 ± 0.32 | 121 ± 13 | 25 ± 2 | –
16 | O=c1c2ccccc2[se]n1-c1ccc(F)cc1F [compound 44, 2-(2,4-Difluorophenyl)-1,2-benzisoselenazol-3(2H)-one] | 0.0167 ± 0.0017 | 130 ± 16 | 17 ± 1.8 | –
17 | O=c1c2ccccc2[se]n1-c1ccccc1 [compound 1, 2-phenyl-1,2-benzisoselenazol-3(2H)-one] | – | – | 29.2 ± 3.1 | Ki (histone deacetylases): 80 to 4420 nM; IC50 [4]: 2430 nM; IC50 (glutamate dehydrogenase): 360 nM; Ki (antigen 85 complex): 63 nM; IC50 [5]: 1000 nM
18 | Cc1ccc(Cl)cc1-n1[se]c2ccccc2c1=O [compound 48, 2-(5-Chloro-2-methylphenyl)-1,2-benzisoselenazol-3(2H)-one] | 75.2 ± 6.2 | – | – | –
19 | O=c1c2ccccc2[se]n1-c1ccc(C(F)(F)F)cc1 [compound 40, 2-(4-Trifluoromethylphenyl)-1,2-benzisoselenazol-3(2H)-one] | 0.0363 ± 0.0039 | 100 ± 14 | 16 ± 1.3 | –
20 | O=c1c2ccccc2[se]n1-c1ccccc1F [compound 31, 2-(2-Fluorophenyl)-1,2-benzisoselenazol-3(2H)-one] | 0.974 ± 0.089 | 34.7 ± 2.7 | 7.48 ± 0.67 | –
21 | O=c1c2ccccc2[se]n1-c1cc(Cl)ccc1Cl [compound 51, 2-(2,5-Dichlorophenyl)-1,2-benzisoselenazol-3(2H)-one] | 0.00885 | 254 ± 14 | 21.2 ± 1.5 | –
22 | COc1ccc(C)cc1-n1[se]c2ccccc2c1=O [compound 52, 2-(2-Methoxy-5-methylphenyl)-1,2-benzisoselenazol-3(2H)-one] | 7.11 ± 0.56 | 96.6 ± 8.1 | 11.8 ± 1.6 | mechanism of inhibition [1]: Slow binding inhibition
23 | COc1ccccc1-n1[se]c2ccccc2c1=O [compound 35, 2-(2-Methoxyphenyl)-1,2-benzisoselenazol-3(2H)-one] | 5.36 ± 0.43 | 18.8 ± 2.4 | 4.19 ± 0.45 | –
24 | O=c1c2ccccc2[se]n1-c1ccccc1Br [compound 33, 2-(2-Bromophenyl)-1,2-benzisoselenazol-3(2H)-one] | 6.79 ± 0.53 | 543 ± 26 | 26.9 ± 2.8 | –
25 | Cc1ccc(Cl)c(-n2[se]c3ccccc3c2=O)c1 [compound 50, 2-(2-Chloro-5-methylphenyl)-1,2-benzisoselenazol-3(2H)-one] | 1.63 ± 0.13 | 243 ± 17 | 54 ± 2.7 | –
